# Laboratory results reported in patent US12336981B2, “Compounds and compositions for the inhibition of NAMPT” (Valo Health, Inc., priority 2010, dated 2025).
# pIC50: −log10 of the molar value. Read-outs that look alike come from different tables or passages of the source.
# Legend:
# NAMPT = target: T1, NAMPT (Homo sapiens, UniProt P43490); assay: Biochemical inhibition assay: NAMPT enzymatic reaction, NMN quantified by mass spectrometry; conditions: read-out: Biochem IC50
# T1 construct: His tag; host or cells: E. coli
# T1 sequence (P43490 whole entry): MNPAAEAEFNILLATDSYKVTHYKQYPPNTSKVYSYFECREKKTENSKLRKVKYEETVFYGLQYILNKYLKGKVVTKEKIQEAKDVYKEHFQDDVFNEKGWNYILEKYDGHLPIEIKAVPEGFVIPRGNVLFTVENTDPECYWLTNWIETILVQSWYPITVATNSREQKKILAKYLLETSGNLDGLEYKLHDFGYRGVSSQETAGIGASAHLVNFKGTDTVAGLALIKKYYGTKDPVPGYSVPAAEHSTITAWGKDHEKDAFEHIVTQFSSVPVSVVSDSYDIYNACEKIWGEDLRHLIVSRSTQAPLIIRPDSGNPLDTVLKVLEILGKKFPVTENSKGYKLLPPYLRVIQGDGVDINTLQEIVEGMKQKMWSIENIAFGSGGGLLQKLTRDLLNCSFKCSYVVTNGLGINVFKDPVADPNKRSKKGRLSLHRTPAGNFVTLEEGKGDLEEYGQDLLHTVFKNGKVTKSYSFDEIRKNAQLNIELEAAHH
# Procedure, shortened: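 Inhibition of E. coli-expressed His-tagged human NAMPT, measured as NMN formation by mass spectrometry after a 30 min room-temperature reaction containing 1 μM NAM, 100 μM PRPP and 2.5 mM ATP.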
# A2780 cells = assay: In-vitro cell proliferation assay (SRB), A2780 cells; format: cell-based; conditions: Homo sapiens, A2780, 72 h, A2780 cells, 72 hours, read-out: A2780 IC50
# Procedure, shortened: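 SRB read-out: 6% TCA fix 1 h at 4° C., stain, Tris solubilize, A570. Media-only background subtracted; % inhibition from two compound concentrations.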
smiles,measurement,setting,value
"O=C(NCc1ccc(S(=O)(=O)c2ccc(Cl)c(F)c2)cc1)c1cc2cnccc2[nH]1 [N-({4-[(4-chloro-3-fluorobenzene)sulfonyl]phenyl}methyl)-1H-pyrrolo[3,2-c]pyridine-2-carboxamide]",pIC50,NAMPT; NAMPT enzymatic reaction,8.10
same,pIC50,A2780 cells; SRB assay,7.89
COc1c(C)cc(S(=O)(=O)c2ccc(CNC(=O)c3cc4ccncc4o3)cc2)cc1C,pIC50,NAMPT; NAMPT enzymatic reaction,8.25
same,pIC50,A2780 cells; SRB,8.74
"Cc1ccc(S(=O)(=O)c2ccc(CNC(=O)c3cc4ccncc4s3)cc2)cc1 [N-({4-[(4-methylbenzene)sulfonyl]phenyl}methyl)thieno[2,3-c]pyridine-2-carboxamide]",pIC50,NAMPT; NAMPT enzymatic reaction,8.30
same,pIC50,A2780 cells; SRB assay,8.30
"O=C(NCc1ccc(S(=O)(=O)c2ccccc2Cl)cc1)c1cnc2[nH]ncc2c1 [N-({4-[(2-chlorobenzene)sulfonyl]phenyl}methyl)-1H-pyrazolo[3,4-b]pyridine-5-carboxamide]",pIC50,NAMPT; NAMPT enzymatic reaction,7.03
same,pIC50,A2780 cells; SRB,6.00 to 7.00
Cc1ccc(S(=O)(=O)c2ccc(CNC(=O)c3cc4ccncc4o3)cc2)c(Cl)c1,pIC50,NAMPT; NAMPT enzymatic reaction,7.85
same,pIC50,A2780 cells; SRB,7.85
"O=C(NCc1ccc(S(=O)(=O)c2ccc(C(F)(F)F)cn2)cc1)c1ccc2nccn2c1 [N-({4-[5-(trifluoromethyl)pyridine-2-sulfonyl]phenyl}methyl)imidazo[1,2-a]pyridine-6-carboxamide]",pIC50,NAMPT; NAMPT enzymatic assay,7.33
same,pIC50,A2780 cells; SRB,7.49
"O=C(NCc1ccc(S(=O)(=O)c2ccccc2OCc2ccccc2)cc1)c1cc2cnccc2[nH]1 [N-[(4-{[2-(benzyloxy)benzene]sulfonyl}phenyl)methyl]-1H-pyrrolo[3,2-c]pyridine-2-carboxamide]",pIC50,NAMPT; NAMPT enzymatic reaction,7.74
same,pIC50,A2780 cells; SRB assay,7.48
Cc1cc(Cl)cc(S(=O)(=O)c2ccc(CNC(=O)c3cnc4[nH]ncc4c3)cc2)c1,pIC50,NAMPT; NAMPT enzymatic reaction,8.21
same,pIC50,A2780 cells; SRB,8.59
CCOc1cc(Cl)ccc1S(=O)(=O)c1ccc(CNC(=O)c2cc3ccncc3s2)cc1,pIC50,NAMPT; NAMPT enzymatic reaction,8.62
same,pIC50,A2780 cells; SRB,> 9.40
"O=C(NCc1ccc(S(=O)(=O)c2ccccc2F)cc1)c1cc2ccncc2o1 [N-({4-[(2-fluorobenzene)sulfonyl]phenyl}methyl)furo[2,3-c]pyridine-2-carboxamide]",pIC50,NAMPT; NAMPT enzymatic reaction,7.38
same,pIC50,A2780 cells; SRB,6.00 to 7.00
"O=C(NCc1ccc(S(=O)(=O)c2cccc3cc[nH]c23)cc1)c1cc2ccncc2s1 [N-{[4-(1H-indole-7-sulfonyl)phenyl]methyl}thieno[2,3-c]pyridine-2-carboxamide]",pIC50,NAMPT; NAMPT enzymatic reaction,8.52
same,pIC50,A2780 cells; SRB assay,8.57
"O=C(NCc1ccc(S(=O)(=O)c2cnc3ccccc3c2)cc1)c1ccc2nccn2c1 [N-{[4-(quinoline-3-sulfonyl)phenyl]methyl}imidazo[1,2-a]pyridine-6-carboxamide]",pIC50,NAMPT; NAMPT enzymatic assay,7.85
same,pIC50,A2780 cells; SRB,9.00
COc1ccc(OC(F)(F)F)cc1S(=O)(=O)c1ccc(CNC(=O)c2cc3cnccc3[nH]2)cc1,pIC50,NAMPT; NAMPT enzymatic assay,7.32
same,pIC50,A2780 cells; SRB,8.18
N#Cc1cccc(S(=O)(=O)c2ccc(CNC(=O)c3cc4ccncc4s3)cc2)c1,pIC50,NAMPT; NAMPT enzymatic reaction,8.46
same,pIC50,A2780 cells; SRB,8.25
COc1ccc(Cl)c(S(=O)(=O)c2ccc(CNC(=O)c3cc4cnccc4[nH]3)cc2)c1,pIC50,NAMPT; NAMPT enzymatic reaction,7.96
same,pIC50,A2780 cells; SRB,8.01
CCCCOc1ccc(Cl)cc1S(=O)(=O)c1ccc(CNC(=O)c2cc3cnccc3[nH]2)cc1,pIC50,NAMPT; NAMPT enzymatic reaction,7.81
same,pIC50,A2780 cells; SRB,8.08
"COc1ccc(S(=O)(=O)c2ccc(CNC(=O)c3cc4cnccc4[nH]3)cc2)cc1 [N-({4-[(4-methoxybenzene)sulfonyl]phenyl}methyl)-1H-pyrrolo[3,2-c]pyridine-2-carboxamide]",pIC50,NAMPT; NAMPT enzymatic reaction,7.96
same,pIC50,A2780 cells; SRB assay,8.05
Cc1cccc(S(=O)(=O)c2ccc(CNC(=O)c3ccc4nccn4c3)cc2)c1F,pIC50,NAMPT; NAMPT enzymatic reaction,8.12
same,pIC50,A2780 cells; SRB,8.48
"CS(=O)(=O)Nc1ccccc1S(=O)(=O)c1ccc(CNC(=O)c2cc3cnccc3[nH]2)cc1 [N-({4-[(2-methanesulfonamidobenzene)sulfonyl]phenyl}methyl)-1H-pyrrolo[3,2-c]pyridine-2-carboxamide]",pIC50,NAMPT; NAMPT enzymatic reaction,6.55
same,pIC50,A2780 cells; SRB assay,< 6.00
COc1cc(OC)cc(S(=O)(=O)c2ccc(CNC(=O)c3cc4cnccc4[nH]3)cc2)c1,pIC50,NAMPT; NAMPT enzymatic reaction,8.36
same,pIC50,A2780 cells; SRB,8.82
Cc1ccc(Cl)c(S(=O)(=O)c2ccc(CNC(=O)c3cc4ccncc4s3)cc2)c1F,pIC50,NAMPT; NAMPT enzymatic assay,8.11
same,pIC50,A2780 cells; SRB,8.17
CCCCOc1ccc(Cl)cc1S(=O)(=O)c1ccc(CNC(=O)c2ccc3nccn3c2)cc1,pIC50,NAMPT; NAMPT enzymatic reaction,7.96
same,pIC50,A2780 cells; SRB,8.10
CCOc1cc(Cl)ccc1S(=O)(=O)c1ccc(CNC(=O)c2cc3ccncc3o2)cc1,pIC50,NAMPT; NAMPT enzymatic reaction,8.14
same,pIC50,A2780 cells; SRB,8.29
"Cc1cc(Cl)cnc1S(=O)(=O)c1ccc(CNC(=O)c2cc3ccncc3s2)cc1 [N-{[4-(5-chloro-3-methylpyridine-2-sulfonyl)phenyl]methyl}thieno[2,3-c]pyridine-2-carboxamide]",pIC50,NAMPT; NAMPT enzymatic assay,8.41
same,pIC50,A2780 cells; SRB,8.14
O=C(NCc1ccc(S(=O)(=O)c2cc(F)ccc2Cl)cc1)c1cnc2nccn2c1,pIC50,NAMPT; NAMPT enzymatic reaction,7.98
same,pIC50,A2780 cells; SRB,7.28
"Cc1cc(C)c(S(=O)(=O)c2ccc(CNC(=O)c3cc4cnccc4[nH]3)cc2)c(C)c1 [N-({4-[(2,4,6-trimethylbenzene)sulfonyl]phenyl}methyl)-1H-pyrrolo[3,2-c]pyridine-2-carboxamide]",pIC50,NAMPT; NAMPT enzymatic assay,7.12
same,pIC50,A2780 cells; SRB,7.34
CC(C)c1ccc(S(=O)(=O)c2ccc(CNC(=O)c3cnc4nccn4c3)cc2)cc1,pIC50,NAMPT; NAMPT enzymatic assay,8.77
same,pIC50,A2780 cells; SRB,8.09
COc1cc(F)ccc1S(=O)(=O)c1ccc(CNC(=O)c2cnc3nccn3c2)cc1,pIC50,NAMPT; NAMPT enzymatic reaction,7.72
same,pIC50,A2780 cells; SRB,7.13
O=C(NCc1ccc(S(=O)(=O)c2ccc(-n3cccn3)cc2)cc1)c1cnc2[nH]ncc2c1,pIC50,NAMPT; NAMPT enzymatic assay,7.91
same,pIC50,A2780 cells; SRB,8.12
CCCCOc1cccc(F)c1S(=O)(=O)c1ccc(CNC(=O)c2cc3ccncc3o2)cc1,pIC50,NAMPT; NAMPT enzymatic reaction,7.59
same,pIC50,A2780 cells; SRB,7.16
COc1cc(S(=O)(=O)c2ccc(CNC(=O)c3cc4cnccc4[nH]3)cc2)ccc1F,pIC50,NAMPT; NAMPT enzymatic reaction,7.56
same,pIC50,A2780 cells; SRB,8.27
CN(C)Cc1cccc(S(=O)(=O)c2ccc(CNC(=O)c3cnc4nccn4c3)cc2)c1,pIC50,NAMPT; NAMPT enzymatic assay,8.36
same,pIC50,A2780 cells; SRB,7.18
Cc1cc(C)n(-c2cccc(S(=O)(=O)c3ccc(CNC(=O)c4cc5ccncc5s4)cc3)c2)n1,pIC50,NAMPT; NAMPT enzymatic assay,8.51
same,pIC50,A2780 cells; SRB,8.82
"Cc1ccc(S(=O)(=O)c2ccc(CNC(=O)c3cnc4[nH]ncc4c3)cc2)s1 [N-{[4-(5-methylthiophene-2-sulfonyl)phenyl]methyl}-1H-pyrazolo[3,4-b]pyridine-5-carboxamide]",pIC50,NAMPT; NAMPT enzymatic assay,7.65
same,pIC50,A2780 cells; SRB,7.46
"O=C(NCc1ccc(S(=O)(=O)c2csc(-c3cccc(F)c3)n2)cc1)c1cc2ccncc2o1 [N-({4-[2-(3-fluorophenyl)-1,3-thiazole-4-sulfonyl]phenyl}methyl)furo[2,3-c]pyridine-2-carboxamide]",pIC50,NAMPT; NAMPT enzymatic assay,7.92
same,pIC50,A2780 cells; SRB,7.30
"CCS(=O)(=O)c1cccc(S(=O)(=O)c2ccc(CNC(=O)c3cc4cnccc4[nH]3)cc2)c1 [N-[(4-{[3-(ethanesulfonyl)benzene]sulfonyl}phenyl)methyl]-1H-pyrrolo[3,2-c]pyridine-2-carboxamide]",pIC50,NAMPT; NAMPT enzymatic assay,7.77
same,pIC50,A2780 cells; SRB,7.81
COc1ccc(Cl)cc1S(=O)(=O)c1ccc(CNC(=O)c2cnc3nccn3c2)cc1,pIC50,NAMPT; NAMPT enzymatic reaction,8.26
same,pIC50,A2780 cells; SRB,8.21
O=C(NCc1ccc(S(=O)(=O)c2ccccc2Cl)cc1)c1cc2ccncc2s1,pIC50,NAMPT; NAMPT enzymatic reaction,8.62
same,pIC50,A2780 cells; SRB,8.18
CCOc1cc(F)ccc1S(=O)(=O)c1ccc(CNC(=O)c2cc3ccncc3s2)cc1,pIC50,NAMPT; NAMPT enzymatic reaction,8.42
same,pIC50,A2780 cells; SRB,9.05
CCOc1ccc(S(=O)(=O)c2ccc(CNC(=O)c3ccc4nccn4c3)cc2)c(C)c1,pIC50,NAMPT; NAMPT enzymatic reaction,8.18
same,pIC50,A2780 cells; SRB,7.95
O=C(NCc1ccc(S(=O)(=O)c2cc(F)cc(Cl)c2)cc1)c1cnc2[nH]ncc2c1,pIC50,NAMPT; NAMPT enzymatic reaction,7.88
same,pIC50,A2780 cells; SRB,8.22
"COc1ccc(S(=O)(=O)c2ccc(CNC(=O)c3cc4ccncc4o3)cc2)c(C)c1 [N-({4-[(4-methoxy-2-methylbenzene)sulfonyl]phenyl}methyl)furo[2,3-c]pyridine-2-carboxamide]",pIC50,NAMPT; NAMPT enzymatic reaction,7.67
same,pIC50,A2780 cells; SRB,7.45
CCc1cccc(S(=O)(=O)c2ccc(CNC(=O)c3cnc4[nH]ncc4c3)cc2)c1,pIC50,NAMPT; NAMPT enzymatic reaction,8.15
same,pIC50,A2780 cells; SRB,8.15
CC(C)Oc1cc(F)ccc1S(=O)(=O)c1ccc(CNC(=O)c2cc3ccncc3o2)cc1,pIC50,NAMPT; NAMPT enzymatic assay,7.81
same,pIC50,A2780 cells; SRB,7.86
"O=C(NCc1ccc(S(=O)(=O)c2cccc(Cl)c2)cc1)c1cc2ccncc2o1 [N-({4-[{3-chlorobenzene)sulfonyl]phenyl}methyl)furo[2,3-c]pyridine-2-carboxamide]",pIC50,NAMPT; NAMPT enzymatic reaction,8.22
same,pIC50,A2780 cells; SRB,8.48
"Cn1ncc2ccc(S(=O)(=O)c3ccc(CNC(=O)c4cc5cnccc5[nH]4)cc3)cc21 [N-{[4-(1-methyl-1H-indazole-6-sulfonyl)phenyl]methyl}-1H-pyrrolo[3,2-c]pyridine-2-carboxamide]",pIC50,NAMPT; NAMPT enzymatic assay,8.29
same,pIC50,A2780 cells; SRB,8.48
CCCOc1cccc(S(=O)(=O)c2ccc(CNC(=O)c3ccc4nccn4c3)cc2)c1,pIC50,NAMPT; NAMPT enzymatic reaction,8.38
same,pIC50,A2780 cells; SRB,8.20
"O=C(NCc1ccc(S(=O)(=O)c2cnn(-c3ccc(F)cc3)c2)cc1)c1cc2ccncc2o1 [N-({4-[1-(4-fluorophenyl)-1H-pyrazole-4-sulfonyl]phenyl}methyl)furo[2,3-c]pyridine-2-carboxamide]",pIC50,NAMPT; NAMPT enzymatic assay,8.16
same,pIC50,A2780 cells; SRB,8.13
"CC(C)Oc1cccc(S(=O)(=O)c2ccc(CNC(=O)c3cnc4nccn4c3)cc2)c1F [N-[(4-{[2-fluoro-3-(propan-2-yloxy)benzene]sulfonyl}phenyl)methyl]imidazo[1,2-a]pyrimidine-6-carboxamide]",pIC50,NAMPT; NAMPT enzymatic assay,8.74
same,pIC50,A2780 cells; SRB,8.15
"O=C(NCc1ccc(S(=O)(=O)c2cccc(C(F)(F)F)n2)cc1)c1ccc2nccn2c1 [N-({4-[6-(trifluoromethyl)pyridine-2-sulfonyl]phenyl}methyl)imidazo[1,2-a]pyridine-6-carboxamide]",pIC50,NAMPT; NAMPT enzymatic assay,8.06
same,pIC50,A2780 cells; SRB,8.82
CC(=O)c1ccc(S(=O)(=O)c2ccc(CNC(=O)c3cnc4nccn4c3)cc2)cc1,pIC50,NAMPT; NAMPT enzymatic reaction,8.28
same,pIC50,A2780 cells; SRB,8.19
